Measured values reported in patent publication US20010021394A1, “Induction of a cellular stress response with heavy metal salts” (priority 1996, published 2001).

Assays:
[1] = tested on: spinal cord ischemia; test: Acute spinal cord ischemia in the rabbit (aortic occlusion, neurologic function after reperfusion); type: in vivo, New Zealand white rabbits; conditions: 0.15 mg per kilogram subcutaneous, sixteen hours prior to 20 minutes aortic occlusion at 37° C., evaluated 24 hours after reperfusion, four animals
Source text: New Zealand white rabbits were stress conditioned and subjected to spinal cord ischemia using methods similar to those previously described in Perdrizet et al., “Stress conditioning: A novel approach to organ preservation”, Current Surgery, 46(1): 23-26 (January-February 1989), the contents of which are incorporated herein by reference in their entirety. The rabbits were subjected to spinal cord ischemia by occlusion of the infrarenal-abdominal aorta as an ischemic insult to the spinal cord, for 20 minutes at 37° C. The occlusion was then removed and blood flow re-established to the infra-renal aorta. Neurological function of the lower extremities was evaluated 24 hours after reperfusion. Four animals were pretreated with a subcutaneous injection in the rump region of stannous chloride (SnCl2) in a saline diluent at a dose of 0.15 mg per kilogram (0.00066 millimoles per kilogram), sixteen hours prior to aortic occlusion.

[2] = tested on: warm renal ischemia; test: Warm ischemic injury of the rat kidney (renal vascular resistance); type: in vivo, Male Sprague-Dawley rats; conditions: following 60 minutes of warm ischemic injury, recorded as mm mercury/ml fluid/gram of tissue, control approximately 60, uninjured 43-44
Description: Male Sprague-Dawley rats were stress conditioned and subjected to warm ischemic injury using methods similar to those previously described in Perdrizet et al., supra. The non-treated control animals underwent 60 minutes of occlusion of the renal artery at 35-37° C. as an ischemic insult. Following the ischemic injury, flow was reestablished in the kidney and vascular resistance of the kidney was measured. To measure renal vascular resistance, a syringe system was attached to the renal artery, to give a constant flow rate of approximately 0.5 cc/minute. Since there was a constant flow rate, it was possible to measure the pressure generated in the syringe. The higher the pressure, the greater the resistance. Renal vascular resistance was recorded as mm mercury/ml fluid/gram of tissue.

In the case of `[Cl][Sn][Cl]` [SnCl2, stannous chloride], the “Neurological function of the lower extremities” value [1] was “all four animals pretreated with SnCl2 had normal neurologic function” and the Renal vascular resistance [2] was 45 resistance units.
